Measurements reported in patent publication US20190256474A1, “N-PHENYL-2-(3-PHENYL-6-OXO-1,6-DIHYDROPYRIDAZIN-1-YL)ACETAMIDE DERIVATIVES FOR TREATING CYSTIC FIBROSIS” (Proteostasis Therapeutics, Inc., priority 2016, published 2019).

Molecular target: T1, ΔF508-CFTR (Homo sapiens, UniProt P13569, DEL508-508)
T1 construct: Primary lung epithelial cells homozygous for the Cystic Fibrosis-causing ΔF508 mutation were differentiated; endogenous in cells; host or cells: primary human bronchial epithelial cells (hBE), ΔF508/ΔF508
Experiment: hBE equivalent current (Ieq) assay, CFTR activity
Type: cell-based
Details: relative to a CFTR amplifier at 3 μM, ΔF508 homozygous hBE, 24 h treatment; for Activity 3 μM: compound at 3 μM; for Activity 10 μM: compound at 10 μM
Experimental: Primary lung epithelial cells homozygous for the Cystic Fibrosis-causing ΔF508 mutation were differentiated for a minimum of 4 weeks in an air-liquid interface on Costar 24 well HTS filter plates prior to the equivalent current (Ieq) measurements. Cells were apically mucus-washed for 30 minutes 24 h prior to treatment with compounds. The basolateral media was removed and replaced with media containing the compound of interest diluted to its final concentration from DMSO stocks. Treated cells were incubated at 37° C. and 5% CO2 for 24 hours. At the end of the treatment period, the media was changed to the Ieq experimental solution for 2 hours before the experiment and plates are maintained in a CO2-free incubator during this period. The plates containing the cells were then placed in pre-warmed heating blocks at 36° C.±0.5 for 15 minutes before measurements are taken. The transepithelial voltage (VT) and conductance (GT) were measured using a custom 24 channel current clamp (TECC-24) with 24 well electrode manifold. The Ieq assay measurements were made following additions with standardized time periods:
1. The baseline VT and GT values were measured for approximately 20 minutes.
2. Benzamil was added to block ENaC for 15 minutes.
3. Forskolin plus VX-770 were added to maximally activate ΔF508-CFTR for 27 minutes.
4. Bumetanide was added to inhibit the NaK2Cl cotransporter and shut-off secretion of chloride.
The activity data captured was the area under the curve (AUC) for the traces of the equivalent chloride current. The AUC was collected from the time of the forskolin/VX-770 addition until the inhibition by bumetanide addition. Correction in response to compound treatment was scored as the increase in the AUC for compound-treated samples over that of vehicle-treated samples.
The results are shown below in Table 1. + indicates activity <150% of a CFTR amplifier with compound at concentration shown and amplifier at 3 μM; ++ indicates activity >150% of a CFTR amplifier with compound at concentration shown and amplifier at 3 μM.

T1 sequence (P13569 with tags, fused parts or gaps DEL508-508): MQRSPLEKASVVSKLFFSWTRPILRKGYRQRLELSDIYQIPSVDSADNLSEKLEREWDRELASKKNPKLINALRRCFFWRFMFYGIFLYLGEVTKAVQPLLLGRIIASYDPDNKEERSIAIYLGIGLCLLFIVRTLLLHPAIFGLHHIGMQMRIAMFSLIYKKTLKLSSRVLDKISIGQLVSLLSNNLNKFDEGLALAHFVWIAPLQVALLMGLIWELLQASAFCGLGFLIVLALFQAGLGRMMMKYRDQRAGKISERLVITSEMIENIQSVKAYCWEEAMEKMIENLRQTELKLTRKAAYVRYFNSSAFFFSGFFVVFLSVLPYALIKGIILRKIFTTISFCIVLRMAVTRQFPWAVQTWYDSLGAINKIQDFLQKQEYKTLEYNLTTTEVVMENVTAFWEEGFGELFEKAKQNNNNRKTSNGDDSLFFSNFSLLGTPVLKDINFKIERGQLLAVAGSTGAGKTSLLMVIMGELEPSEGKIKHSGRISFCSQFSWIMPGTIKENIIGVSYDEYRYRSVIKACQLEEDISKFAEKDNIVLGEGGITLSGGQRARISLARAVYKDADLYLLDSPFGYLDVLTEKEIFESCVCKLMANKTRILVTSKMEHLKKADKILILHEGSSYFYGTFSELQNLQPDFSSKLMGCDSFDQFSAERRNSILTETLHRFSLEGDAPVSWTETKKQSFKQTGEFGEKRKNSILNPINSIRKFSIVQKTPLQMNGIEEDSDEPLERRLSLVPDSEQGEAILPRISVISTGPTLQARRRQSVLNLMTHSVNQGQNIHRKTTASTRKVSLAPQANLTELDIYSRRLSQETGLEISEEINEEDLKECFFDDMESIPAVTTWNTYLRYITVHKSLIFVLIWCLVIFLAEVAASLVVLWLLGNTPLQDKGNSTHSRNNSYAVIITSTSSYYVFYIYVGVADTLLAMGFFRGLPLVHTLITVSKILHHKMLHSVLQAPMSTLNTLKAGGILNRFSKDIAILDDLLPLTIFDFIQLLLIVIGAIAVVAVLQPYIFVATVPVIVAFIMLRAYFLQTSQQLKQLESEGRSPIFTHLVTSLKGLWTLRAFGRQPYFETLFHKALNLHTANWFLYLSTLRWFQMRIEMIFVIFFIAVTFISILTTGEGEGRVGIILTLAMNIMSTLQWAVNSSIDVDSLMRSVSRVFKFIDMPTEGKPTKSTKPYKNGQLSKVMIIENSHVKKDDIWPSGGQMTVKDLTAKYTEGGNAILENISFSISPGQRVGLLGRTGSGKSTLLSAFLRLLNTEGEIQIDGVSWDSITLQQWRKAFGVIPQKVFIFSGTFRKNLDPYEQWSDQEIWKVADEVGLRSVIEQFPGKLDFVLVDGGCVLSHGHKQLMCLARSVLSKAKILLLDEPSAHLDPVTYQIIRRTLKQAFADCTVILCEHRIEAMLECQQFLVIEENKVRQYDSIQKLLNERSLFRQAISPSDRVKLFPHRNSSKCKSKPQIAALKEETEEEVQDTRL

Row | Compound | Activity 3 μM | Activity 10 μM
1 | COc1cccc(-c2ccc(=O)n(C(C)C(=O)N(C)c3cc(F)cc(F)c3)n2)c1 (stereo not shown) [Compound 17, N-(3,5-Difluorophenyl)-2-[3-(3-methoxyphenyl)-6-oxo-1,6-dihydropyridazin-1-yl]-N-methylpropanamide] | + (activity <150% of a CFTR amplifier with compound at concentration shown and amplifier at 3 μM) | + (activity <150% of a CFTR amplifier with compound at concentration shown and amplifier at 3 μM)
2 | COc1cccc(-c2ccc(=O)n(C(C)C(=O)Nc3ccccc3C(C)(C)C)n2)c1 (stereo not shown) [Compound 9, N-(2-tert-Butylphenyl)-2-[3-(3-methoxyphenyl)-6-oxo-1,6-dihydropyridazin-1-yl]propanamide] | + (activity <150% of a CFTR amplifier with compound at concentration shown and amplifier at 3 μM) | + (activity <150% of a CFTR amplifier with compound at concentration shown and amplifier at 3 μM)
3 | COc1ccc(F)c(-c2ccc(=O)n(C(C)C(=O)Nc3ccc(C(F)(F)F)cc3)n2)c1 (stereo not shown) [Compound 52, 2-[3-(2-Fluoro-5-methoxyphenyl)-6-oxo-1,6-dihydropyridazin-1-yl]-N-[4-(trifluoromethyl)phenyl]propanamide] | ++ (activity >150% of a CFTR amplifier with compound at concentration shown and amplifier at 3 μM) | ++ (activity >150% of a CFTR amplifier with compound at concentration shown and amplifier at 3 μM)
4 | COc1cccc(-c2ccc(=O)n(C(C)C(=O)Nc3ccc(C#N)cc3)n2)c1 (stereo not shown) [Compound 44, N-(4-Cyanophenyl)-2-(3-(3-methoxyphenyl)-6-oxopyridazin-1(6H)-yl)propanamide] | + (activity <150% of a CFTR amplifier with compound at concentration shown and amplifier at 3 μM) | + (activity <150% of a CFTR amplifier with compound at concentration shown and amplifier at 3 μM)
5 | CC(C(=O)Nc1cc(F)cc(F)c1)n1nc(-c2cccc(Cl)c2)ccc1=O (stereo not shown) [Compound 1, 2-[3-(3-Chlorophenyl)-6-oxo-1,6-dihydropyridazin-1-yl]-N-(3,5-difluorophenyl)propanamide] | ++ (activity >150% of a CFTR amplifier with compound at concentration shown and amplifier at 3 μM) | ++ (activity >150% of a CFTR amplifier with compound at concentration shown and amplifier at 3 μM)
6 | COc1cccc(-c2cc(Cl)c(=O)n(C(C)C(=O)Nc3cc(F)cc(F)c3)n2)c1 (stereo not shown) [Compound 22, 2-(5-Chloro-3-(3-methoxyphenyl)-6-oxopyridazin-1(6H)-yl)-N-(3,5-difluorophenyl)propanamide] | + (activity <150% of a CFTR amplifier with compound at concentration shown and amplifier at 3 μM) | + (activity <150% of a CFTR amplifier with compound at concentration shown and amplifier at 3 μM)
7 | CC(C(=O)Nc1ccc(C(F)(F)F)cc1)n1nc(-c2cccc(Cl)c2)ccc1=O (stereo not shown) [Compound 30, 2-[3-(3-Chlorophenyl)-6-oxo-1,6-dihydropyridazin-1-yl]-N-[4-(trifluoromethyl)phenyl]propanamide] | ++ (activity >150% of a CFTR amplifier with compound at concentration shown and amplifier at 3 μM) | ++ (activity >150% of a CFTR amplifier with compound at concentration shown and amplifier at 3 μM)
8 | COc1cccc(-c2ccc(=O)n(C(C(=O)Nc3ccc(C(F)(F)F)cc3)C3CC3)n2)c1 (stereo not shown) [Compound 39, 2-Cyclopropyl-2-(3-(3-methoxyphenyl)-6-oxopyridazin-1(6H)-yl)-N-(4-(trifluoromethyl)phenyl)acetamide] | ++ (activity >150% of a CFTR amplifier with compound at concentration shown and amplifier at 3 μM) | ++ (activity >150% of a CFTR amplifier with compound at concentration shown and amplifier at 3 μM)
9 | COc1cccc(-c2nn(C(C)C(=O)Nc3cc(F)cc(F)c3)c(=O)cc2C)c1 (stereo not shown) [Compound 21, N-(3,5-Difluorophenyl)-2-[3-(3-methoxyphenyl)-4-methyl-6-oxo-1,6-dihydropyridazin-1-yl]propanamide] | + (activity <150% of a CFTR amplifier with compound at concentration shown and amplifier at 3 μM) | + (activity <150% of a CFTR amplifier with compound at concentration shown and amplifier at 3 μM)
10 | CC(C)Oc1cccc(-c2ccc(=O)n(C(C)C(=O)Nc3ccc(C(F)(F)F)cc3)n2)c1 (stereo not shown) [Compound 49, 2-[6-Oxo-3-[3-(propan-2-yloxy)phenyl]-1,6-dihydropyridazin-1-yl]-N-[4-(trifluoromethyl)phenyl]propanamide] | ++ (activity >150% of a CFTR amplifier with compound at concentration shown and amplifier at 3 μM) | ++ (activity >150% of a CFTR amplifier with compound at concentration shown and amplifier at 3 μM)
11 | COc1cccc(-c2ccc(=O)n(C(C)C(=O)Nc3cc(O)c(C(C)(C)C)cc3C(C)(C)C)n2)c1 (stereo not shown) [Compound 26, N-(2,4-Di-tert-butyl-5-hydroxyphenyl)-2-[3-(3-methoxyphenyl)-6-oxo-1,6-dihydropyridazin-1-yl]propanamide] | + (activity <150% of a CFTR amplifier with compound at concentration shown and amplifier at 3 μM) | + (activity <150% of a CFTR amplifier with compound at concentration shown and amplifier at 3 μM)
12 | COc1cccc(-c2ccc(=O)n(C(C)C(=O)Nc3ccc(C(F)(F)F)c(F)c3)n2)c1 (stereo not shown) [Compound 43, N-[3-Fluoro-4-(trifluoromethyl)phenyl]-2-[3-(3-methoxyphenyl)-6-oxo-1,6-dihydropyridazin-1-yl]propanamide] | ++ (activity >150% of a CFTR amplifier with compound at concentration shown and amplifier at 3 μM) | ++ (activity >150% of a CFTR amplifier with compound at concentration shown and amplifier at 3 μM)
13 | COc1cccc(-c2cc(-c3ccccc3)c(=O)n(C(C)C(=O)Nc3cc(F)cc(F)c3)n2)c1 (stereo not shown) [Compound 25, N-(3,5-Difluorophenyl)-2-(3-(3-methoxyphenyl)-6-oxo-5-phenylpyridazin-1(6H)-yl)propanamide] |  | + (activity <150% of a CFTR amplifier with compound at concentration shown and amplifier at 3 μM)
14 | CC(C(=O)Nc1ccc(C(F)(F)F)cc1)n1nc(-c2ccccc2)ccc1=O (stereo not shown) [Compound 28, 2-(6-oxo-3-phenyl-1,6-dihydropyridazin-1-yl)-N-[4-(trifluoromethyl)phenyl]propanamide] | ++ (activity >150% of a CFTR amplifier with compound at concentration shown and amplifier at 3 μM) | ++ (activity >150% of a CFTR amplifier with compound at concentration shown and amplifier at 3 μM)
15 | CC(C(=O)Nc1ccc(C(F)(F)F)cc1)n1nc(-c2ccccc2C#N)ccc1=O (stereo not shown) [Compound 35, 2-[3-(2-Cyanophenyl)-6-oxo-1,6-dihydropyridazin-1-yl]-N-[4-(trifluoromethyl)phenyl]propanamide] | + (activity <150% of a CFTR amplifier with compound at concentration shown and amplifier at 3 μM) | + (activity <150% of a CFTR amplifier with compound at concentration shown and amplifier at 3 μM)
16 | CC(C(=O)Nc1cc(F)cc(F)c1)n1nc(-c2cccc(-c3ccccc3)c2)ccc1=O (stereo not shown) [Compound 5, N-(3,5-Difluorophenyl)-2-[6-oxo-3-(3-phenylphenyl)-1,6-dihydropyridazin-1-yl]propanamide] | + (activity <150% of a CFTR amplifier with compound at concentration shown and amplifier at 3 μM) | + (activity <150% of a CFTR amplifier with compound at concentration shown and amplifier at 3 μM)
